According to article PMC3636857, “Specific Activation of the G Protein-coupled Receptor BNGR-A21 by the Neuropeptide Corazonin from the Silkworm, Bombyx mori, Dually Couples to the Gq and Gs Signaling Cascades” (The Journal of Biological Chemistry, 2013):
Entries after “also recorded” stand apart in the source; their conditions may differ. Numbered stars: 1 amine (or outer) side, 2 acyl side, 3 side chain; on linkers, the order of the positions; unused ones are H or OH. Bridge positions count the residues as written; N and C are the ends. Square brackets hold non-standard residues; d marks the D form. Ends that are not written are not given here. Peptide text beside a SMILES is read from it. X1 = CC(=O)NC(C(=O)OC(C(C)C)C(N[*:1])C(=O)[*:2])C(O)C(C)C; rhodamine red = Rhodamine red fluorescent dye; PhLac = O=C(O)[CH](O)Cc1ccccc1; NMeT = CN[CH](C(=O)O)[CH](C)O; NMeA = CN[CH](C)C(=O)O; NMeDha = C=C(NC)C(=O)O

Columns and labels:
[1] = target: BmCrzR (BNGR-A21); test: CRE-driven luciferase assay of rhodamine-labeled corazonin; assay type: cell-based, Bombyx mori; details: Fig. 5A; CRE-driven luciferase system; rhodamine red-labeled peptide; read-out: activation of BmCrzR (CRE-driven luciferase), EC50
Description: After seeding in a 48-well plate overnight, HEK293 or Sf21 cells transiently or stably cotransfected with BNGR-A21 and pCRE-Luc were grown to 90–95% confluence, stimulated with the corazonin peptides in DMEM without FBS, and incubated for 4–6 h at 37 °C. Luciferase activity was detected by a firefly luciferase assay kit (KenReal, Shanghai, China). The cAMP concentration was assessed using a commercially available cAMP detection kit (R&D Systems).
All results are expressed as the mean ± S.E. Data were analyzed using nonlinear curve fitting (GraphPad Prism version 5.0) to obtain EC50 values. Statistical significance was determined using Student's t test. Probability values that were less than or equal to 0.05 were considered significant.
FIGURE 5. Direct interaction of BNGR-A21 with corazonin. A, rhodamine red-labeled [Lys^4]corazonin activity was assayed using the CRE-driven luciferase system. B, binding of Rho-[Lys^4]BmCrz to BNGR-A21 expressed in HEK293 cells was measured in the presence of different concentrations of unlabeled peptides or in the absence of unlabeled peptides (total binding). The extent of binding was determined by fluorescence intensity and is presented as a percentage of the total binding. The results represent the mean ± S.D. (n = 3).

[2] = tested on: BmCrzR (BNGR-A21); test: ERK1/2 activation assay in HEK293 cells stably expressing BmCrzR; assay type: cell-based, Bombyx mori; details: HEK293 cells stably transfected with BmCrzR; 1 h pretreatment (H89 10 μM, Go6983 10 μM, U0126 1 μM), then corazonin 1 nM, 5 min
[3] = tested on: BNGR-A21 (BmCrzR); test: intracellular calcium measurement (fura-2) in HEK293 cells; assay type: cell-based, Bombyx mori; details: pretreatment with YM-254890 1 μM, U73122 10 μM, EGTA 5 mM, BAPTA-AM 50 μM or nifedipine 10 μM, corazonin (1 μM with YM-254890)
Description: (§1) The stable FLAG-A21- and BmFlag-A21-expressing HEK293 and Sf21 cells were washed twice with phosphate-buffered saline and resuspended at 5 × 10^6 cells/ml in Hanks' balanced salt solution. The cells were detached by a Nonenzymatic Cell Dissociation Solution (M&C Gene Technology, China) or 0.02% EGTA and then loaded with 3 μM Fura 2-AM (Dojindo Laboratories, Japan) for 30 min at 37 °C. Cells were washed twice in Hanks' solution and then resuspended in Hanks' solution at a concentration of 3 × 10^7 cells/ml. Calcium flux was measured using excitation wavelengths of 340 and 380 nm in a fluorescence spectrometer (Tecan Infinite 200 PRO, Switzerland).
(§2) FIGURE 4. Intracellular Ca^2+ influx. HEK293 (A) and Sf21 (B) cells, respectively, transfected with FLAG-A21 and BmFlag-A21 were measured in response to different concentrations of corazonin peptide using the fluorescent Ca^2+ indicator fura-2. C, effect of pretreatment of the Gq inhibitor on corazonin (1 μM)-mediated Ca^2+ influx in HEK293 cells. D, effects of pretreatment of calcium chelators (EGTA, 5 mM, and BAPTA-AM, 50 μM) and L-calcium channel (nefidipine, 10 μM) inhibitors on corazonin-mediated Ca^2+ influx in HEK293 cells. Effect of pretreatment of PLC inhibitor (U73122, 10 μM) on corazonin-mediated Ca^2+ influx in HEK293 (E) and Sf21 (F) cells. The figures are representative of more than three independent experiments.

[4] = tested on: BNGR-A21 (BmCrzR); assay type: cell-based, Bombyx mori
[5] = tested on: BNGR-A21 (BmCrzR); test: intracellular calcium measurement (fura-2) in Sf21 cells; assay type: cell-based, Bombyx mori; details: pretreatment with U73122 10 μM
Description: as §1, §2

[6] = target: Bombyx neuropeptide G protein-coupled receptor A21 (BNGR-A21), N-terminal FLAG tag (Bombyx mori) (UniProt B3XXN4)
Sequence of Bombyx neuropeptide G protein-coupled receptor A21 (BNGR-A21), N-terminal FLAG tag (Bombyx mori) (B3XXN4 entry or part of it): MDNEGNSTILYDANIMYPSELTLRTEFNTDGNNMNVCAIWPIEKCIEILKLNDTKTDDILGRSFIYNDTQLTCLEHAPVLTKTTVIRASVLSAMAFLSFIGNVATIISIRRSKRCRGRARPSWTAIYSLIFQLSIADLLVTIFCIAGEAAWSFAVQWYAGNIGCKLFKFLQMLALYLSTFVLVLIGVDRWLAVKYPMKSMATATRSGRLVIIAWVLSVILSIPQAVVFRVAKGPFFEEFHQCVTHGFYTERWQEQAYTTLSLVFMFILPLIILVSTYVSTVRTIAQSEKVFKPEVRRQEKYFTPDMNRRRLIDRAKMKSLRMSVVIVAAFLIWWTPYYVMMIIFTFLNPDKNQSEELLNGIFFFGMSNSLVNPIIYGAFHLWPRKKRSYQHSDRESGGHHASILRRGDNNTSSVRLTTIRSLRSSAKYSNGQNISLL

[7] = target: Bombyx neuropeptide G protein-coupled receptor A21 (BNGR-A21), N-terminal FLAG tag (Bombyx mori) (UniProt B3XXN4); remark: listed apart in the source
[8] = target: Bombyx neuropeptide G protein-coupled receptor A21 (BNGR-A21), N-terminal FLAG tag (Bombyx mori) (UniProt B3XXN4); remark: listed apart in the source
[9] = target: Bombyx neuropeptide G protein-coupled receptor A21 (BNGR-A21), N-terminal FLAG tag (Bombyx mori) (UniProt B3XXN4); test: fluorescent ligand competition binding on whole cells; HEK293 cells stably expressing FLAG-A21 in poly-D-lysine-coated 96-well plates; labeled ligand (Rho-[Lys^4]BmCrz) with buffer or unlabeled ligand in PBS with 0.2% BSA, room temperature 90 min, washed with ice-cold PBS with 0.1% BSA; fluorescence intensity as percentage of total binding
[10] = tested on: CrzR in A. gambiae; set-up: method as in PMID 16616003; details: cited from earlier work

Compound: Rho-[Lys^4]BmCrz: Q4K peptide conjugated with rhodamine red at the Lys residue (QTFK(rhodamine red)YSRGWTN; ends and bridges not checked; UniProt Q86N75 20-30, looked up, variant Q4K)
- EC50 [1]: 86.1 nM

Compound: N#CC(=C(/N)Sc1ccccc1N)/C(C#N)=C(/N)Sc1ccccc1N [U0126]
- block of BmCrzR-mediated activation of ERK1/2 [2]: significantly blocked; also recorded: significantly inhibited

Compound: C=C1C(=O)NC(C)C(=O)N(C)C(C)C(=O)NC(C(OC(=O)C(NC(C)=O)C(O)C(C)C)C(C)C)C(=O)N(C)C(C(C)OC)C(=O)OC(C)C(NC(C)=O)C(=O)OC(Cc2ccccc2)C(=O)N1C (centres unmarked) [YM-254890] (Ac-T[PhLac][NMeDha]A[NMeA][X1][NMeT](Me); ester 1-C; configuration not given here)
- effect of inhibitor on corazonin-mediated Ca^2+ mobilization [3]: significant decrease in the intracellular Ca^2+ mobilization; also recorded: significantly blocked
- inhibition of BmCrz-induced luciferase activity [4]: significantly inhibited; also recorded: sensitive

Compound: COc1ccc2c(c1)CC[C@@H]1[C@@H]2CC[C@]2(C)[C@@H](NCCCCCCN3C(=O)C=CC3=O)CC[C@@H]12 [U73122]
- effect of inhibitor on corazonin-mediated Ca^2+ mobilization [5]: sensitive
- effect of inhibitor on corazonin-mediated Ca^2+ mobilization [3]: sensitive; also recorded: significantly blocked
- inhibition of BmCrz-induced luciferase activity [4]: significantly inhibited

Compound: COC(=O)C1=C(C)NC(C)=C(C(=O)OC)C1c1ccccc1[N+](=O)[O-] [nifedipine]
- effect of inhibitor on corazonin-mediated Ca^2+ mobilization [3]: sensitive; also recorded: partially impaired

Compound: Rhodamine red-labeled [Lys^4]BmCrz (peptide)
- CRE-driven luciferase reporter; EC50 [6]: 86.1 nM

Compound: O=C(O)CN(CCOCCOCCN(CC(=O)O)CC(=O)O)CC(=O)O [EGTA]
- effect of inhibitor on corazonin-mediated Ca^2+ mobilization [3]: sensitive; also recorded: partially impaired
- inhibition of BmCrz-induced luciferase activity [4]: significantly inhibited

Compound: cholera toxin [CTX]
- effect of stimulation with CTX on cellular levels of cAMP [4]: remarkable increase in the cellular levels of cAMP

Compound: CC(=O)OCOC(=O)CN(CC(=O)OCOC(C)=O)c1ccccc1OCCOc1ccccc1N(CC(=O)OCOC(C)=O)CC(=O)OCOC(C)=O [BAPTA-AM]
- effect of inhibitor on corazonin-mediated Ca^2+ mobilization [3]: sensitive; also recorded: partially impaired
- inhibition of BmCrz-induced luciferase activity [4]: significantly inhibited

Compound: COc1ccc2c(c1)c(C1=C(c3c[nH]c4ccccc34)C(=O)NC1=O)cn2CCCN(C)C [Go6983]
- block of BmCrzR-mediated activation of ERK1/2 [2]: significantly blocked; also recorded: significantly inhibited
- inhibition of BmCrz-induced luciferase activity [4]: significantly inhibited

Compound: Bombyx mori corazonin ([Arg^7]corazonin) (peptide)
- CRE-driven luciferase reporter (cAMP accumulation), dose response to corazonin, HEK293 cells co-transfected with FLAG-A21/CRE-Luc; EC50 [7]: 4.5 nM
- CRE-driven luciferase reporter (cAMP accumulation), dose response to corazonin, Sf21 cells co-transfected with FLAG-A21/CRE-Luc; EC50 [7]: 1 nM
- ERK1/2 phosphorylation (Western blot), dose response to corazonin, HEK293 cells stably expressing BmCrzR; EC50 [8]: 1.4 nM
- ERK1/2 phosphorylation (Western blot), dose response to corazonin, Sf21 cells expressing BmCrzR; EC50 [8]: 4.7 nM
- IC50 [9]: 0.49 nM

Compound: O=S(=O)(NCCNC/C=C/c1ccc(Br)cc1)c1cccc2cnccc12 [H89]
- block of BmCrzR-mediated activation of ERK1/2 [2]: significantly blocked; also recorded: significantly inhibited
- inhibition of BmCrz-induced luciferase activity [4]: significantly inhibited; also recorded: sensitive

Compound: endogenous corazonin: endogenous corazonin of A. gambiae (ref 22) (QTFQYSRGWTN; ends and bridges not checked; UniProt A0NDK8 21-31, looked up)
- selectivity of A. gambiae CrzR activation [10]: only be activated by its endogenous corazonin
- EC50 ([10]; read-out: activation of A. gambiae CrzR (cAMP accumulation), EC50): 4 nM

Compound: pertussis toxin [PTX]
- effect of pretreatment on corazonin-stimulated cAMP generation [4]: no effect on cAMP generation; also recorded: PTX-insensitive
